This note sets out measurements from paper PMC2248166, “Quantitative peptide binding motifs for 19 human and mouse MHC class I molecules derived using positional scanning combinatorial peptide libraries” (Immunome Research, 2008).

Test [1] concerns the target HLA B*1503 (Homo sapiens, UniProt P01889, A329T/A93T/A95T/C349S/D201E/D98Y/E187L/E204Q/K202T/N87E/Q94N/R155S/R180L/S121R/S35A/V306I/V36M/Y140S/Y91S). Nature of the test: biochemical. The format is binding.
The target of test [2] is HLA B*1501 (Homo sapiens, UniProt P01889, A329T/A93T/A95T/C349S/D201E/D98Y/E187L/E204Q/E69M/E70A/K202T/N87E/Q94N/R155S/R180W/S121R/S35A/S48A/V306I/V36M/Y140S/Y91S). Nature of the test: biochemical. The format is binding.

The IC50 is the midpoint of a concentration-inhibition curve. High values mean lower potency, low ones higher potency.

Where a SMILES comes first, the peptide text is derived from it.

Turning to `CC(C)C[C@H](NC(=O)[C@H](Cc1ccccc1)NC(=O)[C@@H](NC(=O)[C@H](CCCCN)NC(=O)[C@H](CO)NC(=O)[C@@H](N)CO)C(C)C)C(=O)N[C@@H](CCCCN)C(=O)N[C@@H](C)C(=O)N[C@@H](Cc1ccccc1)C(=O)O` [3102.0662] (H-SSKVFLKAF-OH), the figures for the IC50 in test [1] and in test [2] were 0.37 nM and 1.7 nM, respectively.

Take `CC[C@H](C)[C@H](NC(=O)[C@H](CO)NC(=O)[C@@H](N)Cc1c[nH]c2ccccc12)C(=O)N[C@@H](Cc1ccc(O)cc1)C(=O)N[C@@H](CC(C)C)C(=O)N[C@@H](CO)C(=O)N[C@@H](CC(C)C)C(=O)N[C@@H](Cc1c[nH]cn1)C(=O)N[C@@H](Cc1ccc(O)cc1)C(=O)O` [3102.0867] (H-WSIYLSLHY-OH): the results for the IC50 in test [1] and in test [2] were 8.9 nM and 48 nM, respectively. In the case of `CC[C@H](C)[C@H](NC(=O)[C@H](CO)NC(=O)[C@@H](N)CC(C)C)C(=O)N[C@@H](CC(N)=O)C(=O)N[C@@H](CO)C(=O)N[C@@H](CO)C(=O)N[C@@H](Cc1ccccc1)C(=O)N[C@@H](Cc1ccc(O)cc1)C(=O)N[C@@H](Cc1ccccc1)C(=O)O` [3102.1034] (H-LSINSSFYF-OH), the values for the IC50 in test [1] and in test [2] were 4.8 nM and 1 nM, respectively.

`CSCC[C@H](NC(=O)[C@H](C)NC(=O)[C@@H]1CCCN1C(=O)[C@@H](NC(=O)[C@H](Cc1ccc(O)cc1)NC(=O)[C@H](C)NC(=O)[C@H](CCCCN)NC(=O)[C@H](CCC(N)=O)NC(=O)[C@@H](N)CCC(=O)O)C(C)C)C(=O)O` [3102.1038] (H-EQKAYVPAM-OH) had an IC50 in test [2] of 0.77 nM.

On to `CC[C@H](C)[C@H](NC(=O)[C@H](CC(N)=O)NC(=O)[C@H](CC(N)=O)NC(=O)[C@@H](NC(=O)[C@@H](N)CO)[C@@H](C)CC)C(=O)N[C@@H](CC(=O)O)C(=O)N1CCC[C@H]1C(=O)N[C@@H](Cc1c[nH]cn1)C(=O)N[C@@H](Cc1ccccc1)C(=O)O` [3102.1039] (H-SINNIDPHF-OH), for which the IC50 in test [2] came out at 12 nM. `CC[C@H](C)[C@H](NC(=O)[C@H](Cc1ccc(O)cc1)NC(=O)[C@@H](NC(=O)[C@H](CC(N)=O)NC(=O)[C@H](CCC(=O)O)NC(=O)[C@@H](N)CCSC)C(C)C)C(=O)N[C@@H](CO)C(=O)N[C@@H](CO)C(=O)N[C@@H](Cc1ccc(O)cc1)C(=O)O` [3102.1042] (H-MENVYISSY-OH) yielded an IC50 in test [2] of 2 nM. The compound `CC[C@H](C)[C@H](NC(=O)[C@H](CC(N)=O)NC(=O)[C@H](C)NC(=O)[C@@H](NC(=O)[C@@H](N)CC(C)C)[C@@H](C)CC)C(=O)N[C@@H](Cc1c[nH]cn1)C(=O)N[C@@H](CC(N)=O)C(=O)N[C@@H](Cc1c[nH]cn1)C(=O)N[C@@H](CCSC)C(=O)O` [3102.1046] (H-LIANIHNHM-OH) gave an IC50 in test [2] of 0.67 nM. `CC(C)C[C@H](NC(=O)[C@@H](NC(=O)[C@H](CO)NC(=O)[C@@H](NC(=O)[C@H](CC(N)=O)NC(=O)[C@H](CC(C)C)NC(=O)[C@@H](N)CO)[C@@H](C)O)[C@@H](C)O)C(=O)NCC(=O)N[C@@H](Cc1ccccc1)C(=O)O` [3102.1051] (H-SLNTSTLGF-OH): the IC50 in test [1] amounted to 13 nM; in test [2], 1.7 nM. The compound `CSCC[C@H](NC(=O)[C@H](CCC(N)=O)NC(=O)[C@H](CCC(N)=O)NC(=O)[C@@H](NC(=O)[C@H](CCC(=O)O)NC(=O)[C@@H]1CCCN1C(=O)[C@H](CO)NC(=O)[C@H](CO)NC(=O)[C@@H](N)CCCCN)[C@@H](C)O)C(=O)O` [3102.1065] (H-KSSPETQQM-OH) displayed an IC50 in test [2] of 30 nM. Consider `CC[C@H](C)[C@H](NC(=O)[C@H](Cc1c[nH]cn1)NC(=O)[C@H](CO)NC(=O)[C@@H](NC(=O)[C@@H](NC(=O)[C@H](Cc1ccc(O)cc1)NC(=O)[C@H](C)NC(=O)[C@H](CCSC)NC(=O)[C@@H](N)Cc1ccccc1)[C@@H](C)O)[C@@H](C)O)C(=O)O` [3102.1071] (H-FMAYTTSHI-OH), for which the IC50 in test [1] was 7.6 nM; in test [2], 133 nM. For `CC[C@H](C)[C@H](N)C(=O)N[C@@H](CO)C(=O)N[C@H](C(=O)N[C@@H](CC(C)C)C(=O)N[C@H](C(=O)NCC(=O)N[C@@H](CO)C(=O)N[C@@H](CO)C(=O)N[C@H](C(=O)O)[C@@H](C)CC)[C@@H](C)O)C(C)C` [3102.1072] (H-ISVLTGSSI-OH), the IC50 in test [1] stood at 25 nM; in test [2], 34 nM. On to `CC(C)C[C@H](NC(=O)[C@@H](N)CCCNC(=N)N)C(=O)N[C@@H](CC(N)=O)C(=O)N1CCC[C@H]1C(=O)N[C@@H](CCC(=O)O)C(=O)N[C@H](C(=O)N[C@@H](CO)C(=O)N[C@@H](Cc1ccc(O)cc1)C(=O)N[C@@H](Cc1ccccc1)C(=O)O)C(C)C` [3102.1097] (H-RLNPEVSYF-OH), for which the 50% inhibitory concentration (IC50) in test [1] was 0.32 nM; in test [2] it was 0.3 nM. The like results for `CC[C@H](C)[C@H](NC(=O)[C@H](CCC(N)=O)NC(=O)[C@@H](N)CO)C(=O)N[C@H](C(=O)N[C@H](C(=O)N[C@@H](CC(C)C)C(=O)N[C@H](C(=O)N[C@@H](C)C(=O)N[C@@H](Cc1ccccc1)C(=O)O)[C@@H](C)O)[C@@H](C)O)[C@@H](C)CC` [3102.1111] (H-SQIITLTAF-OH) were, in that order, 0.79 nM and 1 nM. As to `CC(C)[C@H](NC(=O)[C@H](CCC(N)=O)NC(=O)[C@@H](N)CO)C(=O)N[C@@H](CCCCN)C(=O)N[C@@H](CS)C(=O)N[C@@H](CS)C(=O)N[C@@H](Cc1c[nH]cn1)C(=O)N[C@@H](Cc1ccc(O)cc1)C(=O)N[C@@H](Cc1ccccc1)C(=O)O` [3102.1126] (H-SQVKCCHYF-OH), the IC50 in test [1] and in test [2] was 0.92 nM in each case. For the compound `CSCC[C@H](NC(=O)[C@@H](N)C(C)C)C(=O)N[C@H](C(=O)N[C@H](C(=O)N[C@@H](CO)C(=O)N[C@@H](CCCCN)C(=O)N1CCC[C@H]1C(=O)N[C@@H](CC(C)C)C(=O)N[C@@H](Cc1ccccc1)C(=O)O)[C@@H](C)O)C(C)C` [3102.1148] (H-VMVTSKPLF-OH), the IC50 in test [1] turned out to be 8.8 nM; in test [2] it was 16 nM.

Consider `CC[C@H](C)[C@H](NC(=O)[C@H](CO)NC(=O)[C@H](CC(C)C)NC(=O)CNC(=O)[C@H](CCC(=O)O)NC(=O)[C@H](CO)NC(=O)[C@H](Cc1ccc(O)cc1)NC(=O)[C@H](CC(C)C)NC(=O)[C@@H](N)CCCNC(=N)N)C(=O)O` [3102.1232] (H-RLYSEGLSI-OH), for which, in test [2], the IC50 turned out to be 4.5 nM.

The compound `CC(C)C[C@H](NC(=O)[C@H](CCC(=O)O)NC(=O)[C@@H]1CCCN1C(=O)[C@@H](NC(=O)[C@H](Cc1ccc(O)cc1)NC(=O)[C@@H](NC(=O)[C@@H](N)Cc1ccccc1)C(C)C)C(C)C)C(=O)N[C@@H](CO)C(=O)N[C@@H](Cc1ccccc1)C(=O)O` [3102.1280] (H-FVYVPELSF-OH) displayed an IC50 in test [2] of 0.96 nM. With `CSCC[C@H](N)C(=O)N[C@@H](CO)C(=O)N[C@@H](CO)C(=O)N[C@@H](CO)C(=O)N[C@@H](CCC(N)=O)C(=O)N[C@@H](CC(=O)O)C(=O)N[C@@H](CC(C)C)C(=O)N[C@@H](CO)C(=O)N[C@@H](Cc1ccccc1)C(=O)O` [3102.1286] (H-MSSSQDLSF-OH), the IC50 in test [2] turned out to be 16 nM. In turn, `CC[C@H](C)[C@H](NC(=O)[C@@H](N)Cc1ccccc1)C(=O)N[C@@H](CC(N)=O)C(=O)N[C@@H](CCSC)C(=O)N[C@H](C(=O)NCC(=O)N[C@@H](CC(N)=O)C(=O)N[C@@H](Cc1c[nH]cn1)C(=O)N[C@@H](Cc1ccccc1)C(=O)O)[C@@H](C)O` [3102.1288] (H-FINMTGNHF-OH) registered an IC50 in test [2] of 16 nM. Compound `CC[C@H](C)[C@H](NC(=O)[C@H](C)NC(=O)[C@H](CCSC)NC(=O)[C@@H](NC(=O)[C@@H](NC(=O)[C@@H](N)C(C)C)[C@@H](C)CC)[C@@H](C)CC)C(=O)N[C@@H](CC(N)=O)C(=O)N[C@H](C(=O)N[C@@H](Cc1ccccc1)C(=O)O)C(C)C` [3102.1303] (H-VIIMAINVF-OH) gave an IC50 in test [2] of 26 nM.
